Source: patent publication US20260240810A1, “COMPOSITIONS AND METHODS FOR REDUCING ADVERSE SIDE EFFECTS IN CANCER TREATMENT” (priority 2022, published 2026)

Assay: Pharmacokinetics, RRx-001-GSH in plasma as surrogate for drug exposure
Type: in vivo
Protocol: RRx-001 reacted nonenzymatically and covalently with reduced glutathione (GSH), and with the β93Cys residue of hemoglobin, forming RRx-001-GSH and RRx-001-hemoglobin metabolites, respectively. Given the rapid conversion of the RRx-001 parent molecule to GSH and hemoglobin conjugates, RRx-001-GSH, being the predominant measurable metabolite in the plasma, was chosen as a surrogate for drug exposure. Terminal half-life of RRx-001-GSH was calculated as approximately 30 minutes.

SMILES: NC(CCC(=O)NC(CSCC(=O)N1CC([N+](=O)[O-])([N+](=O)[O-])C1)C(=O)NCC(=O)O)C(=O)O (centres unmarked) [RRx-001-GSH]
- area under the plasma concentration-time curve and maximum plasma concentration, dose proportionality (doses up to 55 mg/m^2 in phase 1): mostly dosed proportional
- Terminal half-life of RRx-001-GSH (plasma): approximately 30 minutes
